Values quoted from earlier work, collected in patent US20140127179A1, “Natural Killer Cell Formulations” (SCIENTIFIC FORMULATIONS, LLC, priority 2012, published 2014).
Where two headings read alike, the source gives them in different places.

Tests used:
[1] = tested on: Natural Killer cells (NKC); set-up: key: +: Increased NK cell activity was shown; ±: mixed results; settings: summary of literature studies
[2] = tested on: lymphokine-activated killer (LAK) cell; settings: PPS, MPS and LEN, the three combined; P<0.01
NK cell activity [3] = settings: 7 days after the drug injection
[4] = tested on: NK cell and ADCC activity; settings: CLL patients, from 0.01 to 1 microgram/ml
[5] = tested on: NK cell activity of peripheral mononuclear cells
cancer cells = tested on: cancer cells; set-up: key: +: Direct Anti-cancer Activity was shown; settings: direct anti-cancer activity, summary of literature studies
[6] = 42 men, 300 μg of Se
3T3-SV40 fibroblasts = settings: for fibroblast sensitivity to lytic activity of NKC: in several hours, NAC 10 mM
NK cell activity [7] = settings: combinations of 1 mM thioproline and NAC, 5 μM Vitamin C and vitamin E; all ages studied
NK cell function = settings: two weeks of high-dose treatment, cancer patients
tumor cells = settings: inhibited platelet aggregation
[8] = doses up to 5,000 mg
[9] = tested on: Human promyelocytic leukemia cells HL60; settings: HL60 cultured with 30 nM for three years, injected into nu/nu mice
[10] = tested on: interferon-gamma-producing NK cell; settings: nutritional intake of 10 mg
[11] = tested on: transformed and embryonic cells
metastases = settings: NAC administered with haemin and IL-2

## Lentinan
[1]
  NKC Activity: +
[2]
  reduction of the dose of rIL-2 needed to have the same LAK activity: 50%
NK cell activity [3]
  NK cell activity: significantly enhanced
[4]
  enhancement of NK cell and ADCC activity: dose-related increase
[5]; cancer patients, 12 h following administration
  interferon level in the peripheral blood circulation: elevated
[5]; cancer patients, in 48 h
  NK cell activity of peripheral mononuclear cells: enhanced
[5]; n=11, i.v. 2 mg, on the following day
  patients with increased NK cell activity of lymphocytes: four
Cancer cells
  Anti-Cancer: +

## [Se] [Selenium]
[1]
  NKC Activity: +
[6]
  counts of NKC and T lymphocytes expressing both sub-units of IL2R: increased counts
Cancer cells
  Anti-Cancer: +

## O=C(O)CCCCC1CCSS1 (stereo not drawn) [ALA, Alpha-Lipoic Acid]
[1]
  NKC Activity: ±
3T3-SV40 fibroblasts
  fibroblast sensitivity to lytic activity of NKC: reduced significantly

## Oc1ccc(C=Cc2cc(O)cc(O)c2)cc1 [Resveratrol]
[1]
  NKC Activity: +
Cancer cells
  Anti-Cancer: +

## Vitamin E
[1]
  NKC Activity: +
NK cell activity [7]
  NK cell activity: enhancement
NK cell function
  NK cell function: enhanced
Cancer cells
  Anti-Cancer: +

## O=C1O[C@H]([C@@H](O)CO)C(O)=C1O [Vitamin C, Ascorbic acid]
end-stage cancers; 16 survivors, p<0.01
  NKC function of survivors versus baseline: significantly higher
end-stage cancers; as of a mean of 6 months
  patients still alive: 16/20
[1]
  NKC Activity: +
NK cell activity [7]
  NK cell activity: enhancement
Tumor cells
  increase of NK cell cytotoxicity: 285%
Cancer cells
  Anti-Cancer: +
[8]
  mutagenic lesions; negative effects on NK cell activity, apoptosis or cell cycle: did not induce mutagenic lesions nor had negative effects

## O=c1c(-c2ccc(O)cc2)coc2cc(O)cc(O)c12 [Geinstein, Genistein]
[1]
  NKC Activity: +

## COc1cc(/C=C/C(=O)CC(=O)/C=C/c2ccc(O)c(OC)c2)ccc1O [Curcumin]
[1]
  NKC Activity: +

## C=C1/C(=C\C=C2/CCC[C@]3(C)[C@@H]([C@H](C)CCCC(C)(C)O)CC[C@@H]23)C[C@@H](O)C[C@@H]1O [1,25 D3, 1,25-dihydroxyvitamin D3]
[9]
  tumor growth: reduced rate of tumor growth

## C=C1CC[C@H](O)C/C1=C/C=C1\CCC[C@]2(C)[C@@H]([C@H](C)CCCC(C)C)CC[C@@H]12 [Vitamin D3]
[1]
  NKC Activity: +
Cancer cells
  Anti-Cancer: +

## CC(C)=CCC[C@](C)(O)[C@H]1CC[C@]2(C)[C@@H]1[C@H](O)C[C@@H]1[C@@]3(C)CC[C@H](O[C@@H]4O[C@H](CO)[C@@H](O)[C@H](O)[C@H]4O)C(C)(C)[C@@H]3CC[C@]12C [Ginsenoside Rh2]
B16 melanoma cells; mouse, in vivo
  growth of B16 melanoma cells: inhibits
B16 melanoma cells; tumor-bearing nude mice
  NK cell activity in spleen cells: increases

## [Zn] [Zinc]
[1]
  NKC Activity: +
[10]
  quantity of interferon-gamma-producing NK cell: increases
Cancer cells
  Anti-Cancer: +

## O=C(O)[C@@H]1CSCN1 [thioproline]
NK cell activity [7]
  NK cell activity: enhancement

## CC(=O)N[C@@H](CS)C(=O)O [NAC, N-Acetyl-Cysteine]
[1]
  NKC Activity: +
NK cell activity [7]
  NK cell activity: enhancement
[11]; 10 mM
  susceptibility of transformed and embryonic cells to NK cell activity: loss of susceptibility
[11]; pretreated with 10 mM
  susceptibility of murine embryonic fibroblasts (MEFs) to NK cell activity: lose their susceptibility
3T3-SV40 fibroblasts; 18-20 h after NAC removal
  response to NK cell activity after removal of the antioxidant: resistance to NK cell activity
3T3-SV40 fibroblasts; 18-20 h cultivation, 10 mM
  sensitivity to lysis by NKC mouse splenocytes: did not change their sensitivity
3T3-SV40 fibroblasts
  fibroblast sensitivity to lytic activity of NKC: did not change it
metastases
  decrease in metastases: 63%
